Active and inactive are the calls of the source.

Common to all, as to assay type: functional
Test [1] deals with Dual specificity mitogen-activated protein kinase kinase 1 (Homo sapiens, UniProt Q02750). Nature of the test: Navigating the Kinome. Panel member name: MAP2K1.
Test [2] deals with Mitogen-activated protein kinase 9 (Homo sapiens, UniProt P45984).
For test [3], the target named is Dual specificity tyrosine-phosphorylation-regulated kinase 4 (Homo sapiens, UniProt Q9NR20).
Test [4] has as its target Fibroblast growth factor receptor 3 (Homo sapiens, UniProt P22607).
For test [5], the target named is Dual specificity protein kinase CLK4 (Homo sapiens, UniProt Q9HAZ1).
Sequence of Dual specificity protein kinase CLK4 (Q9HAZ1 whole entry): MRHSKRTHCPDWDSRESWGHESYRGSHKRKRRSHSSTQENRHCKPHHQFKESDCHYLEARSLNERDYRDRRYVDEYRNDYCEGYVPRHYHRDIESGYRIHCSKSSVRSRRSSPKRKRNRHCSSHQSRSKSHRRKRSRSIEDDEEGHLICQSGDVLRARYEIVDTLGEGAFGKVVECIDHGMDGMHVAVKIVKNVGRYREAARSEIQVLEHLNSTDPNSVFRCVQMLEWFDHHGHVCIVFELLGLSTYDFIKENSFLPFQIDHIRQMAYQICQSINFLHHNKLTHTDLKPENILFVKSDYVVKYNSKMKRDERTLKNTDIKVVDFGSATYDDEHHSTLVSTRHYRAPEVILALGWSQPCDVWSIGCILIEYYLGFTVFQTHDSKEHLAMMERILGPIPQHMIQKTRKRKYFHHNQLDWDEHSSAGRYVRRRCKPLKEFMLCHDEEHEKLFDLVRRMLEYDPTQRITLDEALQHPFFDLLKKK
The target in a further test is T1, Caspase-3 (Homo sapiens, UniProt P42574).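 Further: Dose-response selectivity test against caspase-3 for candidate inhibitors of sentrin-specific proteases (SENPs).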
T1 sequence (P42574 whole entry): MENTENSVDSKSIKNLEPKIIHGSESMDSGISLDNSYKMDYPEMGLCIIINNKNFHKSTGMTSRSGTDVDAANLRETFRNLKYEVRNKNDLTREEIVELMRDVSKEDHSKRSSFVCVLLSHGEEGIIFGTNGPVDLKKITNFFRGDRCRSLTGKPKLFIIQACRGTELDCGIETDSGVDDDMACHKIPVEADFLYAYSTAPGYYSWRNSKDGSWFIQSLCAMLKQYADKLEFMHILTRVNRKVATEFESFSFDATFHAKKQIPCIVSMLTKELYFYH

Test [6] has as its target T2, Sentrin-specific protease 7 (Homo sapiens, UniProt Q9BQF6).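 Further: Luminescence-based dose-response confirmation of ultra-high-throughput screening hits, measuring inhibition of SENP7.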
T2 sequence (Q9BQF6 whole entry): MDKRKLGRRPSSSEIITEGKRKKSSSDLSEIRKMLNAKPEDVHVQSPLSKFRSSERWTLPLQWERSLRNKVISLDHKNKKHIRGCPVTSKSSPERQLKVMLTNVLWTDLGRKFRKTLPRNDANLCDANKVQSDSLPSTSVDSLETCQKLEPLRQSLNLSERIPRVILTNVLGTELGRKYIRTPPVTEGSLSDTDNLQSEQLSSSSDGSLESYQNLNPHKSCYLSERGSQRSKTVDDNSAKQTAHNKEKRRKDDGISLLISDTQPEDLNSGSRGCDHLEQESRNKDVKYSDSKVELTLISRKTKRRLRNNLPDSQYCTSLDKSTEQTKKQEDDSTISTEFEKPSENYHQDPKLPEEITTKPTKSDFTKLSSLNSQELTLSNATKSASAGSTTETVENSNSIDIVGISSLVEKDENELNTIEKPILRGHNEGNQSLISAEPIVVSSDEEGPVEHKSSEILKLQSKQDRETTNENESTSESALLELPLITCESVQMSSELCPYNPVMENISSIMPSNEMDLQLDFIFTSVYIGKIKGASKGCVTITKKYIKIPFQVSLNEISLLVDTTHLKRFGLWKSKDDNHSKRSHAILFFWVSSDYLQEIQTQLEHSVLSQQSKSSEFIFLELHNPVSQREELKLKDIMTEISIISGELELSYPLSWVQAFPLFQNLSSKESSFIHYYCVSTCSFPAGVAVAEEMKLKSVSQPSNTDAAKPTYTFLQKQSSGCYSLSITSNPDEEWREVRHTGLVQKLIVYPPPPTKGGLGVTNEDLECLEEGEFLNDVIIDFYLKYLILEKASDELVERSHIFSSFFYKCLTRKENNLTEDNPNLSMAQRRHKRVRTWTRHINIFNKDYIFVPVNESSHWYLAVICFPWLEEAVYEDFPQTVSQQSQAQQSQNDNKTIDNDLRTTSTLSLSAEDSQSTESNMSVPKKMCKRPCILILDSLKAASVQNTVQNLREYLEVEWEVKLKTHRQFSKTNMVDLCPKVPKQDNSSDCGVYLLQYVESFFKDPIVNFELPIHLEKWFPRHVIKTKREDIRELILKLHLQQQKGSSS

Test [7] concerns the target T3, Sentrin-specific protease 6 (Homo sapiens, UniProt Q9GZR1).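 Further: Luminescence-based dose-response confirmatory assay of SENP6 inhibition, following up an ultra-high-throughput screen.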
T3 sequence (Q9GZR1 whole entry): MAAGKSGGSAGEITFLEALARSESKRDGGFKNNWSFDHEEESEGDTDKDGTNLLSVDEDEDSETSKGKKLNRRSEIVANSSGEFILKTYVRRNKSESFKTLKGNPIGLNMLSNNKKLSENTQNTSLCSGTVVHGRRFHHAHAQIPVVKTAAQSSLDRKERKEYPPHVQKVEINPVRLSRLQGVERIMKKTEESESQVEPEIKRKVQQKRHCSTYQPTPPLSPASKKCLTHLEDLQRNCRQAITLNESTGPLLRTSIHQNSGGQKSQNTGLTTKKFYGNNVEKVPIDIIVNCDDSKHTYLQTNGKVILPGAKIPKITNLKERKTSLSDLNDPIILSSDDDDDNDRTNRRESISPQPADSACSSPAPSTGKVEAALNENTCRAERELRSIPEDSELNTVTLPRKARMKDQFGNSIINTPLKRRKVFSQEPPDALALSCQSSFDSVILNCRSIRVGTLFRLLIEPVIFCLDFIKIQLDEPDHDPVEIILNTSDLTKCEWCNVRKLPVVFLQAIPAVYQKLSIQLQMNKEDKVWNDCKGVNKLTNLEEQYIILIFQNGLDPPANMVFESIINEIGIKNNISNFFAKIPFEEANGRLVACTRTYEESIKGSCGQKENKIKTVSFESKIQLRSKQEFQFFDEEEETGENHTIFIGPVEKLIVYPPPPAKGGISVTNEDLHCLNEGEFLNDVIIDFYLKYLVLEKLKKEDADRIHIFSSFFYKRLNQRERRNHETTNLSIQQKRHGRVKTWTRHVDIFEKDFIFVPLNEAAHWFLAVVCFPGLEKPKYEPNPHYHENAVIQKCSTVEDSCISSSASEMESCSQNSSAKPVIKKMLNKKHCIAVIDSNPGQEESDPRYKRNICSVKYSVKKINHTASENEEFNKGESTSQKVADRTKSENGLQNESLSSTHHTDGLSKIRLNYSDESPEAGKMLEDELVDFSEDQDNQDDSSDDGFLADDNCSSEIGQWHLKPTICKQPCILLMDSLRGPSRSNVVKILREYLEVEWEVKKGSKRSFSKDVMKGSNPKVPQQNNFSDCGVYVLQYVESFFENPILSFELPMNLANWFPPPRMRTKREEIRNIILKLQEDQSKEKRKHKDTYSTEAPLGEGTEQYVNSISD

Test [8] deals with T4, Sentrin-specific protease 8 (Homo sapiens, UniProt Q96LD8).
T4 sequence (Q96LD8 whole entry): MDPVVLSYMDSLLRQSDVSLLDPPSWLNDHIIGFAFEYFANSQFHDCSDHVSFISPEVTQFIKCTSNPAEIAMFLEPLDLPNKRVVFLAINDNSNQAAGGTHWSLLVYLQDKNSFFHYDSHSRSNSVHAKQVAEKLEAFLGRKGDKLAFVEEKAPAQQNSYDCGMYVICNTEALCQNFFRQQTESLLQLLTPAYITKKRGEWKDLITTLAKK

The next test concerns the target SUMO-activating enzyme (Homo sapiens, UniProt Q9UBT2). Nature of the test: SUMOylation inhibitor hit validation, confirmation, SUMOylation inhibitor project, biochemical, AlphaScreen (AID 2018).

Sequence of Fibroblast growth factor receptor 3 (P22607 whole entry): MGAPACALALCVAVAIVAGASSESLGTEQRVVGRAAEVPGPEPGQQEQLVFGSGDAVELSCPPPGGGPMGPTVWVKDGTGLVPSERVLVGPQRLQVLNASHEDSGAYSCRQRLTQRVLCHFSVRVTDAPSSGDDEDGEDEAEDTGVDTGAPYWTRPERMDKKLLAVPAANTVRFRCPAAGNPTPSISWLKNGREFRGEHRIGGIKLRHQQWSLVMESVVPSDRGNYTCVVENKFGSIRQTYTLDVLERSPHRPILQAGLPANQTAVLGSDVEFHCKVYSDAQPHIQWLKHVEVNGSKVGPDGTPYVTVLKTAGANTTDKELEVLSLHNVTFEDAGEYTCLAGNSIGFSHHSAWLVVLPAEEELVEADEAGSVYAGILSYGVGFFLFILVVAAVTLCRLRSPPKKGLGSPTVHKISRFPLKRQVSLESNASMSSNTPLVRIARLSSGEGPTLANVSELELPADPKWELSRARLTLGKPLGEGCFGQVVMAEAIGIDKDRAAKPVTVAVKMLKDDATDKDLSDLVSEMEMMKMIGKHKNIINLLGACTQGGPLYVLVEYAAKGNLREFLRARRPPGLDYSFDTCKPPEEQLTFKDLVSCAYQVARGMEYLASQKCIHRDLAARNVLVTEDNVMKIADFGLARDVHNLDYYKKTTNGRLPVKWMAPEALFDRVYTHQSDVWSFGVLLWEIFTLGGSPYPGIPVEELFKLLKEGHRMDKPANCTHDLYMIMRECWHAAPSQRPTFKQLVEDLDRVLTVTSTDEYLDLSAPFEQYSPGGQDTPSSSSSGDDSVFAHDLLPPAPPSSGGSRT
Sequence of Dual specificity mitogen-activated protein kinase kinase 1 (Q02750 whole entry): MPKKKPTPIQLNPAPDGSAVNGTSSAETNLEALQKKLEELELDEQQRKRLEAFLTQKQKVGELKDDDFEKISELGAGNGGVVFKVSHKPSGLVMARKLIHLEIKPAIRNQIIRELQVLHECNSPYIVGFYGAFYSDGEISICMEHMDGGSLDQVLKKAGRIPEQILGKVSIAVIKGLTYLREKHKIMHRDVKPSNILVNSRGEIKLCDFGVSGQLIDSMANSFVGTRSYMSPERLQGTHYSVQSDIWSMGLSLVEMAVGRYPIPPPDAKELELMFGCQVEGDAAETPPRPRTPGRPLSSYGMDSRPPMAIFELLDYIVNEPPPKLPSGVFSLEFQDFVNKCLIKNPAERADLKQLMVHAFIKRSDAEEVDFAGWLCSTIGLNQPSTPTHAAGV
Sequence of SUMO-activating enzyme (Q9UBE0 whole entry): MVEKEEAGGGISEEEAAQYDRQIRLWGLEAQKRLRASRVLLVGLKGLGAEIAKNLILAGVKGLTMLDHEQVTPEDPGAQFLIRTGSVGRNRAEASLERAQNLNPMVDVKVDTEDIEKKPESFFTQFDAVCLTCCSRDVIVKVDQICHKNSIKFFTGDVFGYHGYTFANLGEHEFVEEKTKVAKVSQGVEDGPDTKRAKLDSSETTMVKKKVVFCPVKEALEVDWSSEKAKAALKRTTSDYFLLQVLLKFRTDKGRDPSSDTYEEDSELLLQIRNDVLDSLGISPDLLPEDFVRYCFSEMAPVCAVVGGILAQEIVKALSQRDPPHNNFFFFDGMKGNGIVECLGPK
Sequence of SUMO-activating enzyme (Q9UBT2 whole entry): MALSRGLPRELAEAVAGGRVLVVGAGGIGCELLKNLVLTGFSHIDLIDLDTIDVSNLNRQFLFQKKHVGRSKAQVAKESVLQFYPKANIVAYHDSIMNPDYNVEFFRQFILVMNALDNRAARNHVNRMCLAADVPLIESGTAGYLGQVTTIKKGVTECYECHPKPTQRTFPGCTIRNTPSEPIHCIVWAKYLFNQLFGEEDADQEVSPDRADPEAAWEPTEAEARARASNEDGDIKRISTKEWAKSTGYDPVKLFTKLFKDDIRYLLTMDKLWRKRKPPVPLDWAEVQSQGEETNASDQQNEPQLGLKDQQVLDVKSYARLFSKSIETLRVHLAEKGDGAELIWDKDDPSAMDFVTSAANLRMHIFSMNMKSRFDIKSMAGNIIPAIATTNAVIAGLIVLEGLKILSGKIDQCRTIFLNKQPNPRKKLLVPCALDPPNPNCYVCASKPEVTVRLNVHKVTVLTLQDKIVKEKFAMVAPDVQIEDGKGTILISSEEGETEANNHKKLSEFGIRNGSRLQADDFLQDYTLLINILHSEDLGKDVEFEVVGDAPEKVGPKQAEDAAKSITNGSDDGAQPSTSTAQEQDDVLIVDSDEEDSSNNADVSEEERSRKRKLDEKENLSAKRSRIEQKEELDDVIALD
Sequence of Mitogen-activated protein kinase 9 (P45984 whole entry): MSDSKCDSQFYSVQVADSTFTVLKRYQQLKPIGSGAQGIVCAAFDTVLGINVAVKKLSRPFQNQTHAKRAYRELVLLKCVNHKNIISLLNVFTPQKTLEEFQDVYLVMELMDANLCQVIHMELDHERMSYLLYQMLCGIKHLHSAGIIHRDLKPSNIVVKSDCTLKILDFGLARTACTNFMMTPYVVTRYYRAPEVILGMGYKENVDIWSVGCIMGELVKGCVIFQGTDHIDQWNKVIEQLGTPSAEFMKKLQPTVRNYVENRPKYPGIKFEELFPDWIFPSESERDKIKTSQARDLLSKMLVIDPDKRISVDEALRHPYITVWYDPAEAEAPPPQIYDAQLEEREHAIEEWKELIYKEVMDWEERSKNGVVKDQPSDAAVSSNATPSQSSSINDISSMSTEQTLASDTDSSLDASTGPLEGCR
Sequence of Dual specificity tyrosine-phosphorylation-regulated kinase 4 (Q9NR20 whole entry): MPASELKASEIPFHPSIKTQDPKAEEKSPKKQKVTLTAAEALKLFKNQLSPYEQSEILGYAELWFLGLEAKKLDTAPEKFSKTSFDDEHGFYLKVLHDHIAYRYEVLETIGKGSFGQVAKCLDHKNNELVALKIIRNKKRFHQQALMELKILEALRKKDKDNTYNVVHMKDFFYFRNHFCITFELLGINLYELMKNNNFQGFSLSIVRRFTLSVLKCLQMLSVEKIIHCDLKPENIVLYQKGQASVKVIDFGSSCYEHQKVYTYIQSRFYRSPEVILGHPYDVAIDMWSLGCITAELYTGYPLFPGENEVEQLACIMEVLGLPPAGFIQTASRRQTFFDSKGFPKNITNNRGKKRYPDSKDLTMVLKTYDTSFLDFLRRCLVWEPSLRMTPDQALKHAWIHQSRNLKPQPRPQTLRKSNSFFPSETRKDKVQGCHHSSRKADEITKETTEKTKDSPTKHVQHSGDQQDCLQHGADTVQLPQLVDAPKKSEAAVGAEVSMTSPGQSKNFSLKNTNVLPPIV

For `CN1CCN(c2nc(C3=C(c4c[nH]c5ccccc45)C(=O)NC3=O)c3ccccc3n2)CC1` [SOTRASTAURIN], the inhibition constant Ki (as a rule, the equilibrium dissociation constant of an inhibitor or competing ligand from its target) in test [1] is 3.16 µM (active); in test [2], > 3.98 µM (inactive); in test [3], > 7.94 µM (inactive); in test [4], > 2 µM (inactive); in test [5], > 5.01 µM (inactive).
As for `O=C(CCl)Oc1ccc2occ(C(=O)c3cccs3)c2c1`, the half-inhibitory concentration (IC50) (usually the concentration needed to halve the response being measured) was 21.4 µM (active) on Caspase-3, 10.7 µM (active) in [6], 30.7 µM (active) in [7] and 38.2 µM (active) in test [8].
Turning to `CCC(C)n1c(NC(=O)c2ccccc2)c(C#N)c2nc3ccccc3nc21` (centres undefined), the IC50 at SUMO-activating enzyme was 3.51 µM (active); on Caspase-3 it was 13.3 µM (active); in test [6], 2.82 µM (active); in [7], 0.984 µM (active); in [8], 2.24 µM (active).

These data come from ChEMBL document CHEMBL1201862, “PubChem BioAssay data set” (2004).
